Data from patent US11008344B2, “Tricyclic heteroaryl compounds as STING activators” (Incyte Corporation, priority 2018, dated 2021).

Tested on: IRF3
Experiment: IRF3 activation assay in THP-1 Dual Cells (QUANTI-Blue reporter)
Format: cell-based
Settings: Homo sapiens, THP1-Dual, 24 hours incubation, absorbance at 620-655 nm
Experimental: THP-1 Dual Cells (Invivogen) were maintained in RPMI1640 medium with addition of 10% FBS, 100 μg/mL zeocin, 10 μg/mL blasticidin. Cells were added in a 96-well flat bottom assay plate at 100,000 per well in 100 μL complete RPMI medium. Test compounds were prepared by serial dilution in complete RPMI medium and 100 μL test compounds were transferred to each corresponding well. The assay plate was incubated at 37° C., 5% CO2 for 24 hours. After the overnight incubation, 20 μL of the culture supernatants were collected, followed by addition of 180 μL of QUANTI-Blue (Invivogen) to assess IRF3 activity. The amount of IRF3 activation was assessed by reading the absorbance at 620-655 nm with a microplate reader 2 hours later. The culture supernatant from the untreated THP-1 cells was used as the negative control. To determine the NF-κB activation, another 20 μL of culture supernatant were transferred to a 96-well white plate, followed by addition of 50 μL of Quanti-Luc™ assay solution (Invivogen). The amount of NF-κB activation induced by the test compounds were determined by the luminescence above the untreated control. EC50 determination was performed by fitting the curve of percent control activity versus the log of the compound concentration using the GraphPad Prism 6.0 software.

Row | EC50 [nM] | SMILES
1 | ≤ 100 | CCn1nc(C)cc1-c1ncc2c3cc(C(N)=O)cc(OC)c3n(C/C=C/Cn3c4nc(-c5cc(C)nn5CC)ncc4c4cc(C(N)=O)cc(OC)c43)c2n1 [Example 1, (E)-9,9′-(but-2-ene-1,4-diyl)bis(2-(1-ethyl-3-methyl-1H-pyrazol-5-yl)-8-methoxy-9H-pyrimido[4,5-b]indole-6-carboxamide)]
2 | ≤ 100 | CCn1nc(C)cc1-c1ncc2c3cc(C(N)=O)cc(OCCCO)c3n(C/C=C/Cn3c4nc(-c5cc(C)nn5CC)ncc4c4cc(C(N)=O)cc(OCCCO)c43)c2n1 [Example 2, (E)-9,9′-(but-2-ene-1,4-diyl)bis(2-(1-ethyl-3-methyl-1H-pyrazol-5-yl)-8-(3-hydroxypropoxy)-9H-pyrimido[4,5-b]indole-6-carboxamide)]
